# Where two headings read alike, the source gives them in different places.
# Experiments:
# H1975 cell = assay: MTT cytostatic activity, H1975 cell; assay type: cell-based; details: for IC50: Homo sapiens, read-out: H1975 cell (IC50/nM); for Selective inhibitory activity against cells [IC50(A431 cell)/IC50(H1975 cell)]: ratio of cell IC50 values;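 on all read-outs here: cells in 96-well plates exposed to compound for 72 h, then given MTT for a further 4 h at 37 °C under 5% CO2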
# NIH3T3 cell = assay: MTT cytotoxicity against NIH3T3 cells; assay type: cell-based; details: Mus musculus, read-out: MTT assay against NIH3T3 cell (IC50/nM)
# wild-type EGFR kinase = molecular target: T1, wild-type EGFR kinase (Homo sapiens, UniProt P00533); assay: z-lyte inhibition test against wild-type EGFR kinase; assay type: biochemical; details: 10 μM ATP, read-out: EGFR WT (IC50/nM);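 further: reaction volume 10 µL holding 0.8 ng/µL enzyme and 2 µM Tyr04 substrate, with DMSO at 2% once compounds are present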
# T1 construct: purchased Invitrogen PV3872
# A431 cell = assay: MTT cytostatic activity, A431 cell; assay type: cell-based; details: Homo sapiens, A-431; MTT, 72 h; read-out: A431 cell (IC50/nM)
# A431 cells = assay: ELISA assay for cell activity, EGF-treated A431 cells; assay type: cell-based; details: Homo sapiens, A-431, compound 1 h, then EGF 45 min;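 further: Serum-starved A431 cells, ELISA on lysates read as OD450 minus OD570, inhibition scaled between EGF-stimulated wells (0%) and unstimulated cell control (100%), DMSO 0.5% final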
# H1975 cells = assay: ELISA assay for cell activity of EGFR T790M inhibitor, H1975 cells; details: for Selective inhibitory activities against cell [IC50(A431 cell)/IC50(H1975 cell)]: ELISA, ratio of cell IC50 values; for IC50: Homo sapiens, NCI-H1975, 1 h, read-out: H1975 cell (IC50/nM)
# [1] = NIH3T3, cytotoxicity, MTT, 72 h
# T1 sequence (P00533 25-1210): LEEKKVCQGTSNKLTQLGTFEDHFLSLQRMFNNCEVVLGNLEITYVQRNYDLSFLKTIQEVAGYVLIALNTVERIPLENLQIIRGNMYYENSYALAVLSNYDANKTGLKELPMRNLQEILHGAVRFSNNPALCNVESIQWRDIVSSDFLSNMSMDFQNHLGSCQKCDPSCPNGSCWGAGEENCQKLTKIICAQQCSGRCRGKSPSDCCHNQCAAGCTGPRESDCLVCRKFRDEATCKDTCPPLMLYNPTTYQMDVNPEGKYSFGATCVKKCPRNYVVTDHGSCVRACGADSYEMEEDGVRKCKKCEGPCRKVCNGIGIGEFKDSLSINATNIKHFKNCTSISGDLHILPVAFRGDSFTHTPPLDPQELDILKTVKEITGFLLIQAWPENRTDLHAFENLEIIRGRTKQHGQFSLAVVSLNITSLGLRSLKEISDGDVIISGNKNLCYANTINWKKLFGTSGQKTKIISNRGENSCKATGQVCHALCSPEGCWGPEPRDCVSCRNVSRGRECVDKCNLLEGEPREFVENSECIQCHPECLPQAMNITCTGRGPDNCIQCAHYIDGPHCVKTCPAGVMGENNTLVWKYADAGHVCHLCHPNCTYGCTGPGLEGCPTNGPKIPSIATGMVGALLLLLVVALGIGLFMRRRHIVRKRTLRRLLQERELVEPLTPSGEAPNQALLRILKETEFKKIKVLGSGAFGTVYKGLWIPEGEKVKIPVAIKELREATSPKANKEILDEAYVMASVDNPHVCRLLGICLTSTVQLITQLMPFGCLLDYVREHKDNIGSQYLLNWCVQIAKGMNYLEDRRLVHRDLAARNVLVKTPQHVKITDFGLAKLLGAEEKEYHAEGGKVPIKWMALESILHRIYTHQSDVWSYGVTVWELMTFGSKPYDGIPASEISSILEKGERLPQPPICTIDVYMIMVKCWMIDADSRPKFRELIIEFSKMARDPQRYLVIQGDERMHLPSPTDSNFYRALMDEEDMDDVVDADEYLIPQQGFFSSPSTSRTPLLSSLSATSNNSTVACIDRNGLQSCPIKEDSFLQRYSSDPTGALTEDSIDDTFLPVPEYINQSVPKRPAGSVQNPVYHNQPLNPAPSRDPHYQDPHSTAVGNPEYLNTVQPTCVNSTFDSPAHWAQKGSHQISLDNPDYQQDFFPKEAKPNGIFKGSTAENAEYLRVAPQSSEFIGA
IC50 (wild-type EGFR kinase),SMILES,IC50 (NIH3T3 cell; [1]),also measured
,"CN(C)C/C=C/C(=O)Nc1cc2c(Nc3ccc(F)c(Cl)c3)ncnc2cc1O[C@H]1CCOC1 [BIBW2992, Afatinib, reference compound]",,"IC50 (H1975 cell; NCI-H1975, 72 h): 88 nM; IC50 (NIH3T3 cell; NIH3T3, 72 h): 2750 nM"
154 nM,"C=CC(=O)Nc1cc(Nc2nccc(OC3CCN(C(=O)OC(C)(C)C)CC3)n2)c(OC)cc1N1CCC(N(C)C)CC1 [Compound J-2, tert-butyl 4-(2-(5-acrylamido-4-(4-(dimethylamino)piperidine-1-yl)-2-methoxyphenylamino)pyrimidine-4-oxy)piperidine-1-formate]",,
38 nM,"C=CC(=O)Nc1cc(Nc2ncc(Cl)c(OC3CCN(S(C)(=O)=O)CC3)n2)c(OC)cc1N(C)CCN(C)C [Compound J-3, N-(5-(5-chloro-4-(1-(methylsulfonyl)piperidine-4-oxy)pyrimidine-2-amino)-2-((2-(dimethylamino)ethyl)(methyl)amino)-4-methoxylphenyl) acrylamide]",> 10000 nM,
52 nM,"C=CC(=O)Nc1cc(Nc2nccc(OC3CCN(S(C)(=O)=O)CC3)n2)c(OC)cc1N(C)CCN(C)C [Compound J-4, N-(2-((2-(dimethylamino)ethyl)(methyl)amino)-4-methoxy-5-(4-(1-(methylsulfonyl)piperidine-4-oxy)pyrimidine-2-amino)phenyl) acrylamide]",> 10000 nM,
51 nM,"C=CC(=O)Nc1cc(Nc2nccc(OC3CCN(S(C)(=O)=O)CC3)n2)c(OC)cc1N1CCC(N(C)C)CC1 [Compound J-5, N-(2-(4-(dimethylamino)piperidine-1-yl)-4-methoxy-5-(4-(1-(methylsulfonyl)piperidine-4-oxy)pyrimidine-2-amino)phenyl)acrylamide]",> 10000 nM,
,C=CC(=O)Nc1cc(Nc2nccc(OC3CN(C(=O)c4ccccc4)C3)n2)c(OC)cc1N(C)CCN(C)C [Compound J-6],> 10000 nM,
,"C=CC(=O)Nc1cc(Nc2nccc(OC3CN(C(=O)c4ccccc4)C3)n2)c(OC)cc1N1CCC(N(C)C)CC1 [Compound J-8, N-(5-(4-(1-benzoylaza-3-oxy)pyrimidine-2-amino)-2-(4-(dimethylamino)piperidine-1-yl)-4-methoxylphenyl)acrylamide]",> 10000 nM,
72 nM,"C=CC(=O)Nc1cc(Nc2nccc(OC3CN(S(=O)(=O)c4ccccc4)C3)n2)c(OC)cc1N1CCC(N(C)C)CC1 [Compound J-9, N-(2-(4-(dimethylamino)piperidine-1-yl)-4-methoxy-5-(4-(1-(phenylsulfonyl)azetidine-3-oxy)pyrimidino)phenyl)acrylamide]",> 10000 nM,
,"C=CC(=O)Nc1cc(Nc2nccc(OC3CN(S(C)(=O)=O)C3)n2)c(OC)cc1N1CCC(N(C)C)CC1 [Compound J-10, N-(2-(4-(dimethylamino)piperidine-1-yl)-4-methoxy-5-(4-(1-(methylsulfonyl)azetidine-3-oxy)pyrimidine-2-amino)phenyl)acrylamide]",> 10000 nM,"IC50 (H1975 cell; NCI-H1975, MTT, 72 h): 31 nM; Selective inhibitory activity against cells [IC50(A431 cell)/IC50(H1975 cell)] (H1975 cell; MTT): 19.2; IC50 (A431 cell): 596 nM"
,"C=CC(=O)Nc1cc(Nc2nccc(OC3CN(c4cnc5ccccc5c4)C3)n2)c(OC)cc1N(C)CCN(C)C [Compound J-14, N-(2-((2-(dimethylamino)ethyl)(methyl)amino)-4-methoxy-5-(4-(1-(quinoline-3-yl)azetidine-3-oxy)pyrimidine-2-amino)phenyl)acrylamide]",> 10000 nM,
,C=CC(=O)Nc1cc(Nc2nccc(OC3CN(c4cnc5c(cnn5C)c4)C3)n2)c(OC)cc1N(C)CCN(C)C [Compound J-15],> 10000 nM,IC50 (A431 cells): 835 nM; Selective inhibitory activities against cell [IC50(A431 cell)/IC50(H1975 cell)] (H1975 cells): 11.1; IC50 (H1975 cells): 75 nM
,C=CC(=O)Nc1cc(Nc2nccc(OC3CN(c4cnc5c(ccn5C)c4)C3)n2)c(OC)cc1N(C)CCN(C)C [Compound J-16],> 10000 nM,
,C=CC(=O)Nc1cc(Nc2nccc(OC3CN(c4cnc5c(cnn5C)c4)C3)n2)c(OC)cc1N1CCC(N(C)C)CC1 [Compound J-19],> 10000 nM,
69 nM,C=CC(=O)Nc1cc(Nc2nccc(OC3CN(C(C)=O)C3)n2)c(OC)cc1N1CCC(N(C)C)CC1 [Compound J-20],> 10000 nM,"IC50 (H1975 cell; NCI-H1975, MTT, 72 h): 138 nM; Selective inhibitory activity against cells [IC50(A431 cell)/IC50(H1975 cell)] (H1975 cell; MTT): 38.8; IC50 (A431 cell): 5350 nM"
,C=CC(=O)Nc1cc(Nc2nccc(OC3CN(C(=O)c4ccc(F)cc4)C3)n2)c(OC)cc1N(C)CCN(C)C [Compound J-21],> 10000 nM,
,C=CC(=O)Nc1cc(Nc2nccc(OC3CN(C(=O)c4ccc(C)cc4)C3)n2)c(OC)cc1N(C)CCN(C)C [Compound J-22],> 10000 nM,
32 nM,C=CC(=O)Nc1cc(Nc2nccc(OC3CN(C(C)=O)C3)n2)c(OC)cc1N(C)CCN(C)C [Compound J-23],> 10000 nM,
119 nM,C=CC(=O)Nc1cc(Nc2nccc(OC3CN(C(=O)c4ccc(C)cc4)C3)n2)c(OC)cc1N1CCC(N(C)C)CC1 [Compound J-24],6000 nM,
11 nM,C=CC(=O)Nc1cc(Nc2ncc(C#N)c(OC3CN(S(C)(=O)=O)C3)n2)c(OC)cc1N1CCC(N(C)C)CC1 [Compound J-32],> 10000 nM,

IC50 (wild-type EGFR kinase),SMILES,IC50 (NIH3T3 cell; [1]),also measured
597 nM,C=CC(=O)Nc1cc(Nc2ncc(Cl)c(OCC3CN(C(C)=O)C3)n2)c(OC)cc1N1CCC(N(C)C)CC1 [Compound J-33],> 10000 nM,
113 nM,C=CC(=O)Nc1cc(Nc2ncc(Cl)c(OCC3CN(S(C)(=O)=O)C3)n2)c(OC)cc1N1CCC(N(C)C)CC1 [Compound J-34],> 10000 nM,
17 nM,C=CC(=O)Nc1cc(Nc2nccc(OC3CCCN(S(C)(=O)=O)CC3)n2)c(OC)cc1N(C)CCN(C)C (stereo not drawn) [Compound J-36],> 10000 nM,"IC50 (H1975 cell; NCI-H1975, MTT, 72 h): 69 nM; Selective inhibitory activity against cells [IC50(A431 cell)/IC50(H1975 cell)] (H1975 cell; MTT): 47.3; IC50 (A431 cell): 3260 nM"
,C=CC(=O)Nc1cc(Nc2ncc(Cl)c(O[C@H]3CCCN(S(C)(=O)=O)C3)n2)c(OC)cc1N1CCC(N(C)C)CC1 [Compound J-42],> 10000 nM,
259 nM,C=CC(=O)Nc1cc(Nc2ncc(F)c(O[C@@H]3CCN(C(C)=O)C3)n2)c(OC)cc1N1CCC(N(C)C)CC1 [Compound J-49],,
26 nM,C=CC(=O)Nc1cc(Nc2ncc(F)c(O[C@@H]3CCN(S(C)(=O)=O)C3)n2)c(OC)cc1N1CCC(N(C)C)CC1 [Compound J-51],> 10000 nM,IC50 (A431 cells): 937 nM; Selective inhibitory activities against cell [IC50(A431 cell)/IC50(H1975 cell)] (H1975 cells): 15; IC50 (H1975 cells): 64 nM
47 nM,C=CC(=O)Nc1cc(Nc2ncc(F)c(O[C@H]3CCN(S(C)(=O)=O)C3)n2)c(OC)cc1N1CCC(N(C)C)CC1 [Compound J-52],> 10000 nM,IC50 (A431 cells): 700 nM; Selective inhibitory activities against cell [IC50(A431 cell)/IC50(H1975 cell)] (H1975 cells): 15; IC50 (H1975 cells): 47 nM
,"C=CC(=O)Nc1cc(Nc2nccc(OC3CN(CCF)C3)n2)c(OC)cc1N(C)CCN(C)C [Compound J-53, N-(2-((2-(dimethylamino)ethyl)(methyl)amino)-5-(4-(1-(2-fluroethyl)azetidine-3-oxy)pyrimidine-2-amino)-4-methoxyphenyl) acrylamide]",> 10000 nM,IC50 (A431 cells): 225 nM; Selective inhibitory activities against cell [IC50(A431 cell)/IC50(H1975 cell)] (H1975 cells): 7.5; IC50 (H1975 cells): 30 nM
376 nM,C=CC(=O)Nc1cc(Nc2ncc(Cl)c(OC3CN(CCF)C3)n2)c(OC)cc1N1CCC(N(C)C)CC1 [Compound J-54],> 10000 nM,"IC50 (H1975 cell; NCI-H1975, MTT, 72 h): 92 nM; Selective inhibitory activity against cells [IC50(A431 cell)/IC50(H1975 cell)] (H1975 cell; MTT): 66.1; IC50 (A431 cell): 6080 nM"
181 nM,C=CC(=O)Nc1cc(Nc2ncc(Cl)c(NC3CN(C(C)=O)C3)n2)c(OC)cc1N1CCC(N(C)C)CC1 [Compound J-61],> 10000 nM,
6 nM,C=CC(=O)Nc1cc(Nc2ncc(F)c(NC3CN(S(C)(=O)=O)C3)n2)c(OC)cc1N1CCC(N(C)C)CC1 [Compound J-62],> 10000 nM,
2 nM,C=CC(=O)Nc1cc(Nc2ncc(Cl)c(N[C@@H]3CCCN(CCF)C3)n2)c(OC)cc1N1CCC(N(C)C)CC1 [Compound J-67],,
41 nM,C=CC(=O)Nc1cc(Nc2ncc(Cl)c(N[C@H]3CCCN(CCF)C3)n2)c(OC)cc1N1CCC(N(C)C)CC1 [Compound J-68],7600 nM,IC50 (A431 cells): 388 nM; Selective inhibitory activities against cell [IC50(A431 cell)/IC50(H1975 cell)] (H1975 cells): 8.1; IC50 (H1975 cells): 48 nM
105 nM,C=CC(=O)Nc1cc(Nc2ncc(Cl)c(NC3CCN(S(C)(=O)=O)CC3)n2)c(OC)cc1N1CCC(N(C)C)CC1 [Compound J-69],> 10000 nM,
24 nM,C=CC(=O)Nc1cc(Nc2ncc(Cl)c(N(C)C3CN(S(C)(=O)=O)C3)n2)c(OC)cc1N1CCC(N(C)C)CC1 [Compound J-73],> 10000 nM,IC50 (A431 cells): 494 nM; Selective inhibitory activities against cell [IC50(A431 cell)/IC50(H1975 cell)] (H1975 cells): 19; IC50 (H1975 cells): 26 nM
216 nM,C=CC(=O)Nc1cc(Nc2ncc(Cl)c(NC3CC3)n2)c(OC)cc1N1CCC(N(C)C)CC1 [Compound J-74],,IC50 (A431 cells): 2030 nM; Selective inhibitory activities against cell [IC50(A431 cell)/IC50(H1975 cell)] (H1975 cells): 7.7; IC50 (H1975 cells): 264 nM
463 nM,C=CC(=O)Nc1cc(Nc2ncc(Cl)c(OC3(C)CN(S(C)(=O)=O)C3)n2)c(OC)cc1N1CCC(N(C)C)CC1 [Compound J-75],,IC50 (A431 cells): > 10000 nM; Selective inhibitory activities against cell [IC50(A431 cell)/IC50(H1975 cell)] (H1975 cells): >22.8; IC50 (H1975 cells): 438 nM
14 nM,C=CC(=O)Nc1cc(Nc2ncc(Cl)c(OC3CN(S(C)(=O)=O)C3)n2)ccc1N1CCC(N(C)C)CC1 [Compound J-76],,

# Source: US9879008B2, “2,3,4,6-tetra-substituted benzene-1,5-diamine derivatives, preparation method therefor and medicinal use thereof” (SHANGHAI HAIYAN PHARMACEUTICAL TECHNOLOGY CO., LTD., priority 2014, dated 2018)
